In PubChem BioAssay (NCI):
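A five-concentration, 48-hour dose response in 96-well plates underlies each endpoint, interpolated linearly between surrounding concentrations. The concentration for full growth arrest is given as TGI.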

Assays:
Assay in all cases: NCI-60 cell line screen, 48 h
TK-10 renal = system: TK-10 renal
NCI/ADR-RES ovarian = system: NCI/ADR-RES ovarian
A549 NSCLC = system: A549 NSCLC
ACHN renal = system: ACHN renal
OVCAR-3 ovarian = system: OVCAR-3 ovarian
HT29 colon = system: HT29 colon
OVCAR-5 ovarian = system: OVCAR-5 ovarian
MDA-MB-435 = system: MDA-MB-435
KM12 colon = system: KM12 colon
HCT-15 colon = system: HCT-15 colon
SR leukemia = system: SR leukemia
NCI-H522 lung = system: NCI-H522 lung
HL-60(TB) leukemia = system: HL-60(TB) leukemia
SK-MEL-28 melanoma = system: SK-MEL-28 melanoma
HCT-116 colon = system: HCT-116 colon
RPMI-8226 leukemia = system: RPMI-8226 leukemia
RXF 393 renal = system: RXF 393 renal
SNB-75 CNS = system: SNB-75 CNS
DU-145 prostate = system: DU-145 prostate
BT-549 breast = system: BT-549 breast
MDA-MB-231 breast = system: MDA-MB-231 breast
K-562 leukemia = system: K-562 leukemia
U251 CNS = system: U251 CNS
M14 melanoma = system: M14 melanoma
SK-OV-3 ovarian = system: SK-OV-3 ovarian
LOX IMVI melanoma = system: LOX IMVI melanoma
UO-31 renal = system: UO-31 renal
SF-295 CNS = system: SF-295 CNS
SNB-19 CNS = system: SNB-19 CNS
T-47D breast = system: T-47D breast
SF-268 CNS = system: SF-268 CNS
CAKI-1 renal = system: CAKI-1 renal
SF-539 CNS = system: SF-539 CNS
PC-3 prostate = system: PC-3 prostate
CCRF-CEM leukemia = system: CCRF-CEM leukemia
HCC-2998 colon = system: HCC-2998 colon
COLO 205 colon = system: COLO 205 colon
OVCAR-8 ovarian = system: OVCAR-8 ovarian
MDA-N = system: MDA-N
SN12C renal = system: SN12C renal
MOLT-4 leukemia = system: MOLT-4 leukemia
EKVX NSCLC = system: EKVX NSCLC
NCI-H23 lung = system: NCI-H23 lung
MALME-3M melanoma = system: MALME-3M melanoma
HOP-92 NSCLC = system: HOP-92 NSCLC
UACC-62 melanoma = system: UACC-62 melanoma
HS 578T breast = system: HS 578T breast
786-0 renal = system: 786-0 renal
SW-620 colon = system: SW-620 colon
SK-MEL-2 melanoma = system: SK-MEL-2 melanoma
NCI-H460 lung = system: NCI-H460 lung
NCI-H226 lung = system: NCI-H226 lung
IGROV1 ovarian = system: IGROV1 ovarian
SK-MEL-5 melanoma = system: SK-MEL-5 melanoma
HOP-62 NSCLC = system: HOP-62 NSCLC
OVCAR-4 ovarian = system: OVCAR-4 ovarian
A498 renal = system: A498 renal
UACC-257 melanoma = system: UACC-257 melanoma

Measured: TGI

COc1ccc2c(c1)O[C@@H]1[C@@H](OC3OC(CO)C(O)C(O)C3O)Oc3cc(OC)c(OC)cc3[C@]1(O)C2=O (some centres not stated)
> 100 µM: all assays above

COc1c(-c2nc3nc(N4CCN(C)CC4)ccc3[nH]2)cc(OC)c2c1nc(CO)n2C
not listed: TK-10 renal | SR leukemia | SK-MEL-5 melanoma | A498 renal
> 100 µM: all other assays above
